Assay results as given in the NIST ThermoML archive (doi:10.1016/j.fluid.2013.09.030).
Numbers after ± are expanded uncertainties.

Assays:
[1] = Boiling temperature at pressure P; settings: Liquid, Ebulliometric method (Recirculating still)
[2] = Liquid; for mass density: 298.15 K, 101.33 kPa, Vibrating tube method; for vapor or sublimation pressure: Ebulliometric method (Recirculating still)
[3] = refractive index (Na D-line) (dimensionless); settings: 298.15 K; 101.33 kPa; Liquid; Standard Abbe refractometry
[4] = xn = mol fraction of the nth substance listed; settings: 298.15 K, 101 kPa, Liquid, Vibrating tube method
[5] = refractive index (Na D-line) (dimensionless); xn = mol fraction of the nth substance listed; settings: 298.15 K, 101 kPa, Liquid, Standard Abbe refractometry

COC(=O)Oc1ccccc1 [methyl phenyl carbonate]
[1]
Settings | Boiling temperature at pressure P [°C]
3 kPa | 105.66 ± 1.8
5 kPa | 118.02 ± 1.2
10 kPa | 136.72 ± 0.86
15 kPa | 148.41 ± 0.58
20 kPa | 157.08 ± 0.45
25 kPa | 164.10 ± 0.37
30 kPa | 170.01 ± 0.31
35 kPa | 174.97 ± 0.27
40 kPa | 179.58 ± 0.25
45 kPa | 183.76 ± 0.23
50 kPa | 187.52 ± 0.21
55 kPa | 190.94 ± 0.19
60 kPa | 194.06 ± 0.18
65 kPa | 197.11 ± 0.17
70 kPa | 199.87 ± 0.15
75 kPa | 202.31 ± 0.15
80 kPa | 204.76 ± 0.15
85 kPa | 207.20 ± 0.14
90 kPa | 209.54 ± 0.14
95 kPa | 211.70 ± 0.12
100 kPa | 213.56 ± 0.12
101.3 kPa | 214.33 ± 0.14
102.1 kPa | 214.51 ± 0.08

Settings | mass density [kg/m3] | refractive index
[2] | 1143.63 ± 0.15 | –
[3] | – | 1.4948 ± 0.0004

COC(=O)OC [dimethyl carbonate]
Settings | mass density [kg/m3] | refractive index
[2] | 1063.26 ± 0.06 | –
[3] | – | 1.3666 ± 0.0004

Settings | vapor or sublimation pressure [kPa]
[2], 363.25 K | 101.3 ± 0.3

COC(=O)Oc1ccccc1 [methyl phenyl carbonate] + CO
Settings | mass density, [4] [kg/m3] | refractive index, [5]
x1 = 0.0501 | 842.07 ± 0.2 | 1.3647 ± 0.0004
x1 = 0.1001 | 886.48 ± 0.17 | 1.3885 ± 0.0004
x1 = 0.2002 | 953.27 ± 0.13 | 1.4283 ± 0.0004
x1 = 0.3002 | 1000.92 ± 0.09 | 1.45 ± 0.0004
x1 = 0.4003 | 1036.71 ± 0.09 | 1.467 ± 0.0004
x1 = 0.5 | 1064.49 ± 0.09 | 1.4748 ± 0.0004
x1 = 0.6013 | 1087.16 ± 0.1 | 1.4801 ± 0.0004
x1 = 0.7008 | 1105.28 ± 0.11 | 1.4848 ± 0.0004
x1 = 0.8003 | 1120.25 ± 0.12 | 1.4877 ± 0.0004
x1 = 0.9015 | 1133.12 ± 0.13 | 1.4915 ± 0.0004
x1 = 0.9471 | 1138.14 ± 0.14 | 1.4929 ± 0.0004

CO [methanol]
Settings | mass density [kg/m3] | refractive index
[2] | 786.69 ± 0.12 | –
[3] | – | 1.3267 ± 0.0004

Settings | vapor or sublimation pressure [kPa]
[2], 338.12 K | 101.3 ± 0.3

COC(=O)Oc1ccccc1 [methyl phenyl carbonate] + COC(=O)OC
Settings | mass density, [4] [kg/m3] | refractive index, [5]
x1 = 0.0499 | 1069.88 ± 0.07 | 1.3764 ± 0.0004
x1 = 0.1 | 1076.1 ± 0.07 | 1.3863 ± 0.0004
x1 = 0.2001 | 1087.37 ± 0.08 | 1.4038 ± 0.0004
x1 = 0.2999 | 1097.32 ± 0.08 | 1.419 ± 0.0004
x1 = 0.4 | 1106.17 ± 0.09 | 1.4336 ± 0.0004
x1 = 0.5002 | 1114.08 ± 0.09 | 1.4463 ± 0.0004
x1 = 0.6 | 1121.17 ± 0.1 | 1.4575 ± 0.0004
x1 = 0.7007 | 1127.6 ± 0.11 | 1.468 ± 0.0004
x1 = 0.8003 | 1133.42 ± 0.12 | 1.4774 ± 0.0004
x1 = 0.8991 | 1138.71 ± 0.13 | 1.4853 ± 0.0004
x1 = 0.9493 | 1141.22 ± 0.14 | 1.4901 ± 0.0004
